The text below walks through data of patent US6664231B1, “Anti-fungal peptides” (priority 1993, dated 2003).

One data set deals with Candida albicans. Briefly: Radial diffusion assay, Candida species (Table 2). It counts as cell-based. Particulars: higher effective concentration of agarose than Table 1.
A further data set can be described thus: in vitro. It counts as in vitro ADME, rat or human serum. Particulars: serum, half-life of peptide in serum as detected by HPLC analysis; read-out: HPLC Peptide in Serum t ½ (converted). The procedure, abridged:
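Peptide (1 mg/mL solution) mixed with an equal volume of rat or human serum at 37° C; samples taken at 0, 1, 2 and 4 h. Peptide recovered by C-18 solid phase extraction and quantified by C-8 reverse-phase HPLC with detection at 214 nm.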

The test system of data set [1] is polyene-resistant (ATCC 38247), 5-fluorocytosine-resistant (ATCC 44373), azole-resistant (ATCC 62342), ketoconazole-resistant (ATCC 64124) C. albicans. Briefly: Fungicidal activity on commercially-available drug-resistant Candida strains. It is filed as cell-based, Candida albicans. Particulars: ATCC 38247, 44373, 62342, 64124. On the procedure: Further experiments were performed to determine the anti-fungal activity of Domain III derived peptides on commercially-available strains of Candida considered resistant to other anti-fungal agents: polyene-resistant C. albicans (ATCC Accession No. 38247), 5-fluorocytosine-resistant C. albicans (ATCC No. 44373), azole-resistant C. albicans (ATCC No. 62342), and ketoconazole-resistant C. albicans (ATCC No. 64124).

Data set [2] is classed as physicochemical. As for the experimental part: XMP.284 was soluble in water and unbuffered saline. XMP.284 was also soluble in 10 mM sodium phosphate, 150 mM sodium chloride pH 7. […] There was very little product loss, as measured by absorbance at 280 nm, in 0.15 M saline buffered with 10 mM acetate at pH 4, 5 or 6. […] Presently preferred is a formulation that includes 10 mM sodium acetate, 150 mM sodium chloride, pH 5.

The format of data set [3] is physicochemical. Particulars: 37° C., at 50 days, acetate buffered saline. On the procedure:
The lyophilized peptide was dissolved to a concentration of 1 mg/mL in three different buffers. The three formulation buffers used were (a) 10 mM solution acetate, 150 mM sodium chloride pH 4, (b) 10 mM sodium acetate, 150 mM sodium chloride pH 5 and (c) 10 mM sodium acetate, 150 mM sodium chloride pH 6. The formulated peptide samples were incubated at 4° C. and 37C. At each time point, samples were withdrawn from each vial and assayed by C18 reverse phase BPLC, absorbance at 280 nm, and SDS-PAGE. The study was conducted for 50 days.
A 0.46×25 cm Vydac C18 column (cat no. 218TP54) was used on a Shimadzu HPLC system. The column was run in binary gradient mobile phases: A=Water+0.05% TFA, B=acetonitrile+0.05% TFA. […]
Samples were analyzed by SDS polyacrylamide gel electrophoresis, run on Novex 10-20% tricine precast gels (Novex, La Jolla, Calif., EC6625). […] In addition, samples were analyzed photometrically. For this, samples withdrawn at each time point were diluted 6-fold with Millipore water and absorbance was measured at 280 nm and scanning from 210 nm to 340 nm using a Shimadzu UV 160 spectrophotometer. AU samples were filtered prior to absorbance measurement(s).
XMP.284 was soluble in water and unbuffered saline. […] There was very little product loss, as measured by absorbance at 280 nm, in 0.15 M saline buffered with 10 mM acetate at pH 4, 5 or 6. […]

Take H-KSKVGWLIQLFHKK-NH2 [XMP.13]: the “Anti-fungal activity: pmol/30 mm^2 zone, Candida albicans” value in the data set with Candida albicans was 2,233 pmol/30 mm^2 zone. The half-life at 0.5 mg/mL in “in vitro” was 2.5 h. In data set [1], the “Fungicidal activity on resistant strains” value was “not reduced”.

For the molecule H-SKVKWLIQLFHKK-NH2 [XMP.284], in data set [2], the “solubility in the phosphate buffer on heating” value was “remained soluble”; the “solubility in water and unbuffered saline” value is listed as “soluble”. Also, the “new HPLC peaks accumulated” value in data set [3] is on record as “less than 0.5%”. The half-life at 0.5 mg/mL in “in vitro” is 4.2 h.

Turning to `C[C@@H]1[C@H](O)[C@@H](C)/C=C/C=C/C=C/C=C/C=C/C=C/C=C/[C@H](O[C@@H]2O[C@H](C)[C@@H](O)[C@H](N)[C@@H]2O)C[C@@H]2O[C@](O)(C[C@@H](O)C[C@@H](O)[C@H](O)CC[C@@H](O)C[C@@H](O)CC(=O)O[C@H]1C)C[C@H](O)[C@H]2C(=O)O` [Amphotericin B, amphotericin B, reference compound], the “Anti-fungal activity: pmol/30 mm^2 zone, Candida albicans” value in the data set with Candida albicans was found to be 11 pmol/30 mm^2 zone.
